SMILES strings stand for the structures.

A word on the melting point: it is the temperature of the solid-liquid transition. Take `COCCCc1cc(Cl)cc2nc(Cc3ccccc3Cl)oc12`: the melting point fell in the range of 49 to 51 °C.
Regarding `COc1ccc(C(=O)Nc2c(Cl)cc(N)cc2Cl)cc1OC1CCCC1`, the melting point is 170 to 172 °C.
The compound `CC(C)(C)c1ccc(-c2ccc3c(c2)C=C(C(=O)O)CCS3(=O)=O)cc1` had a melting point of 289 to 291 °C.
Then `COC(=O)C1=C(C)Nc2cc[nH]c(=O)c2C1c1ccccc1C(F)(F)F` (stereo not given), with 295 °C; and `CC(=O)OC(=CC(=O)O)CC(=O)Nc1cccc(F)c1`, with 117 °C; and `O=C(O)c1nn(-c2ccccc2)c2c1CCc1cc(Cl)ccc1-2`, with 282 °C.
On to `CCOc1ccc(S(=O)(=O)N2CCN(C)CC2)cc1-c1nc2c(COC)nn(C)c2c(=O)[nH]1`, for which the melting point lay in the range of 198 to 199 °C.
`CC(C)(COc1ccc([N+](=O)[O-])cc1)c1ccccc1` returned a melting point of 79 to 80 °C.
Then `O=C(O)c1ccc(CO)cc1O`, with 179 to 180 °C; and `CCOC(=O)c1nc(-c2ccc(Cl)cc2Cl)c(-c2ccc(Cl)cc2)s1`, with 117 to 118 °C.
`N#CN1Cc2ccccc2-c2ccccc2C1` displayed a melting point of 121 to 124 °C.
The compound `Cc1cc2c(N3CCc4ccc(Cl)cc43)ncnc2cn1` displayed a melting point of 232 to 234 °C.
On to `COc1cc(N2CCN(C)CC2)ccc1Nc1ncc2cc3ccccc3n2n1`, for which the melting point was 150 to 153 °C.
In turn, `CC(n1cncn1)C(O)(Cn1cncn1)c1ccc(F)cc1F` (stereo not given) yielded a melting point of 115 to 116 °C.
The figure for `OC[C@@H]1CC[C@H]2CN(c3ncccn3)CCN2C1` (relative stereo) is 135 to 136 °C.
On to `CN(C)C(=O)Nc1scc(C(C)(C)C)c1C#N`, for which the melting point is 140 °C.
Compound `CCOC(=O)c1[nH]c(SCC)nc1C(C)(C)O` gave a melting point of 82 to 85 °C.
The figure for `c1ccc(Cc2n[nH]c(NCCCCOc3cccc(CN4CCCCC4)c3)n2)cc1` is 145 to 146 °C; for `CCC12CCC3C4CCC(OC)=CC4=CCC3C1C(OC(C)=O)CC2=O` (stereo not given) it is 190 °C; for `N#CC1(c2ccccc2)CCN(c2ccn(CC3CC3)c(=O)c2Cl)CC1` it is 174 °C.
Take `Cc1ccc(-c2ccc3c(c2)C=C(C(=O)N[C@H]2CC[C@H](CN(C)C4CCOCC4)CC2)CO3)cc1`: the melting point was 141 to 143 °C.
`COc1ccc(CCNC(=O)c2nc(N)sc2-c2ccncc2)cc1OC` showed a melting point of 167 to 168 °C.
On to `COc1ccc(Cn2cnc3c(Cl)nc(C(F)(F)F)nc32)cc1`, for which the melting point lay in the range of 104 to 106 °C.
In turn, `CCOC(=O)c1c(SC)c(N=O)c2ccccn12` registered a melting point of 134 to 135 °C.
Consider `CN1CC(C(=O)N(Cc2ccc(F)cc2)OCC(=O)O)=C(O)C1=O`, for which the melting point fell in the range of 147 to 150 °C.
`Cc1nc2c(OCc3c(Cl)ccc(N(C)C(=O)Oc4ccc([N+](=O)[O-])cc4)c3Cl)cccn2c1Br`: the melting point fell in the range of 229 to 230 °C.
Regarding `CCOC(=O)c1cnn(-c2cccc(N(C)C)n2)c1S(N)(=O)=O`, the melting point lay in the range of 157 to 160 °C.
The figure for `CCOC(=O)Cn1c(-c2cc3c(cc2[N+](=O)[O-])OCO3)nc2ccccc21` is 136 to 138 °C; for `c1ccc(COc2cc(OCc3ccccc3)c3ccncc3c2)cc1` it is 113 to 115 °C.
The figure for `CCCC(=O)Nc1ccc(N2CCC(NC[C@H](O)COc3cccc4[nH]c(=O)[nH]c34)CC2)cc1` is 190 to 201 °C; for `CC(C)(C)c1cc(C(=O)Nc2nc(C(N)=O)c(CCN3CC4CCC(CC4)C3)s2)cc(C(C)(C)C)c1O` it is 275 to 276 °C.
The figure for `Cn1ccnc1N=Cc1ccccc1` is 71 to 72 °C; for `COc1cccc(C2CCc3cc(OC)ccc3C2=O)c1` (stereo not given) it is 81 to 82 °C.
`O=C1c2ccc(N3CCCCC3)c3cc(Br)cc(c23)C(=O)N1O` came in with a melting point of 134 to 136 °C.
As for `BrCCc1cc(Br)c(CCBr)cc1Br`, the melting point is 106 to 108 °C.
Then `CC1(C)C(=O)Nc2cc3[nH]c(CCC(=O)O)nc3cc21`, with 130 to 135 °C; and `COc1cc2cnn(CCCl)c(=O)c2cc1OC`, with 181 to 183 °C.
Turning to `COC(CN(C)C(=O)Nc1nnc(C(C)Oc2cccc(Cl)c2)s1)OC` (stereo not given), the melting point was 127 to 130 °C.
`CCSc1oc2ccccc2c(=S)c1C#N` gave a melting point of 175 to 179 °C.
For `O=C(NCCCSc1ccncc1)c1ccsc1`, the melting point is 121 to 122 °C.
`CC(C)(C)n1nnc(N)n1` had a melting point of 114 to 115 °C.
On to `COC(CN(C)c1nccc(Oc2ccc(NC(=O)c3cc(F)cc(N4CCCCC4)c3)c3ccccc23)n1)OC`, for which the melting point is 135 to 136 °C.
`CC(C)NC1C(n2cccn2)=NNN1S` (stereo not given): the melting point lay in the range of 80 to 85 °C.
The compound `CCOc1cc2c3c(cccc3c1)C(=O)N(O)C2=O` returned a melting point of 224 to 227 °C.
`COC(=O)c1cc(-c2ccc3c(c2)c2cc(-c4ccc(Cl)cc4Cl)c(=O)n(C)c2n3C)on1` showed a melting point of 280 to 281 °C.
For the compound `CCOC(=O)C1=C(COCCNS(N)(=O)=O)NC(C)=C(C(=O)OC)C1c1cccc(Cl)c1Cl` (stereo not given), the melting point lay within 89 to 90 °C.
The figure for `CCN(CC)C(=O)CCc1nc(-c2cccs2)nc2ccccc12` is 106 °C; for `Cc1ncoc1CN1CCc2c(c3cccc(F)c3n2C)C1=O` it is 158 to 161 °C.
The figure for `Cc1c(-c2ccc(O)cc2)n(Cc2ccc(/C=C/C(=O)N(C)C)cc2)c2ccc(O)cc12` is 278 to 280 °C; for `COC(=O)c1ccc(CCCc2cnc3nc(N)nc(O)c3c2)cc1` it is above 250 °C.
Then `CN(C)C(=O)CCCOc1ccc2c(c1)C[C@@H](NC(=O)OC(C)(C)C)CC2`, with 97 to 101 °C; and `Cn1ncc(/C=C/C(=O)Nc2ccc(CC(=O)O)cc2)c1-c1ccc(F)cc1`, with 245 to 246 °C.
`Cc1cc(-c2ccc(Cl)cc2)nn2c(=O)[nH]nc12`: the melting point was 278 to 280 °C.
For the compound `Cc1noc(NS(=O)(=O)c2ccc(F)cc2)c1Br`, the melting point was 142 to 144 °C.
Then `Cc1cc(OCC(=O)O)c2c(c1C)-c1nc(SCCC(c3ccccc3)c3ccccc3)sc1C2`, with 142 to 144 °C; and `CCOC(=O)c1cn(-c2ccc(F)cc2)c2nc(Cl)c(F)cc2c1=O`, with 230 to 232 °C.
Then `COC(=O)[C@@H]1C[C@H](NC(C)=O)C(=O)[C@H]2[C@@]1(C)CC[C@H]1C(=O)O[C@H](c3ccoc3)C[C@]21C`, with 222 to 224 °C; and `Cc1nccn1-c1cc2[nH]c(=O)c(=O)n(O)c2cc1C(F)(F)F`, with above 300 °C.
`COc1ccc2nc3ccc(C(=O)N(C)C)cn3c(=O)c2c1` registered a melting point of 190 to 196 °C.
`COc1cccc(CCCc2c(CC#N)ccc(OC)c2OC)c1` showed a melting point of 78 to 79 °C.
Then `Cc1cc2[nH]c(=O)c3cnc(O)cc3n2n1`, with above 300 °C; and `Clc1ccc2c(c1)c(-c1ccccc1)cc1nncn12`, with 265 to 266 °C; and `C=C1CC(C=CC(O)CCCCC)C(O)(Cc2cccc(OCc3ccccc3)c2)C1` (stereo not given), with 58 °C.
Then `O=C(Cc1ccncc1)[N+]1([O-])CCC(C2c3ccc(Cl)cc3CCc3cccnc32)CC1` (stereo not given), with 125 to 126 °C; and `O=C(Nn1c(=O)c(=O)[nH]c2cc(C(F)(F)F)c([N+](=O)[O-])cc21)C(F)(F)F`, with above 250 °C; and `Cc1nc2ccccc2n(-c2ccc(N)cc2)c1=O`, with 269 to 271 °C.
`Cc1c(NC(=O)CC(C)(C)C)c(C)c2c(c1-c1ccccn1)OCC2c1ccc(C(C)C)cc1` (stereo not given) yielded a melting point of 198 to 200 °C.
`N=C(NCc1cccnc1)NN=Cc1c(Cl)cccc1Cl` showed a melting point of 148 to 151 °C.
As for `CN(CCOc1ccc(C=O)cc1)c1ncccn1`, the melting point was in the range of 74 to 75 °C.
The figure for `O=C1C(=Cc2cccc3ccccc23)CCc2cc(OCCn3ccnc3)ccc21` is 147 to 148 °C; for `Nc1cc(Oc2ccc3c(C(=O)Nc4cccc(C(F)(F)F)c4)nccc3c2)ncn1` it is 197 to 200 °C; for `NC(=O)NCCC[C@H](NCC(O)C(O)C(O)C(O)CO)C(=O)O` (stereo not given in full) it is 176 °C.
For the compound `COC(=O)c1c(Oc2ccccc2N)c2ccccc2n1C`, the melting point was in the range of 103 to 105 °C.
`O=C1N(C23CC4CC(CC(C4)C2)C3)CCC1(Cc1ccncc1)Cc1ccncc1` came in with a melting point of 164 to 165 °C.
`CCC(=O)NCCC1CCc2ccn3nccc3c21` (stereo not given) registered a melting point of 72 to 73 °C.
As to `CC(C)(C)OC(=O)NC(Cc1ccc(OC(=O)OCc2ccccc2)cc1)C(=O)O` (stereo not given), the melting point was 84 to 85 °C.
For the compound `Cc1nc(CN(C)C)n2c1CN=C(c1ccccc1Cl)c1cc(Cl)ccc1-2`, the melting point lay within 185 to 186 °C.
The figure for `COC(=O)[C@H]1Cc2c([nH]c3ccccc23)[C@@H](c2ccc3occc3c2)N1C(=O)[C@H](C)NC(=O)OCc1ccccc1` is 91 to 92 °C; for `N=C(Nc1ccc(Cl)cc1)Nc1ncccc1Cc1ccccc1F` it is 175 to 176 °C.
For the compound `Nc1cc(F)ccc1C(=O)NCCN1CCC(n2c(=O)[nH]c3ccccc32)CC1`, the melting point was 229 °C.
Consider `CN(NC(=O)OC(C)(C)C)C(=O)OCc1ccccc1`, for which the melting point lay in the range of 60 to 65 °C.
`Nc1c(-c2cccs2)nsc1C(=O)O` displayed a melting point of 221 to 224 °C.
In the case of `CN(Cc1ccccc1Sc1nc2ccccc2[nH]1)c1ccccc1`, the melting point is 168 to 169 °C.
As to `O=c1[nH]nc(-c2c(Cl)ccc3cc(Cl)cnc23)o1`, the melting point was found to be 87 °C.
For `CCOC(=O)C1Cc2c([nH]c3ccccc23)CN1C(=S)SC` (stereo not given), the melting point lay within 139 to 141 °C.
The figure for `Clc1ccc2c(c1)ncc1ncsc12` is 199 to 200 °C; for `Cc1ccc(C(=O)C2Cc3ccccc3C2=O)cc1` (stereo not given) it is 103 to 105 °C.
Then `Cc1c(C)c2c(c(C)c1NC(=O)C(C)(C)C)C(c1ccc(C(C)C)cc1)CO2` (stereo not given), with 177 to 178 °C.
Consider `NC(=O)c1ccc(N2CCN(CCCC3OCCc4ccccc43)CC2)cc1` (racemic), for which the melting point is 185 °C.
As for `Nc1nc(Nc2ccccc2)sc1C(=O)c1cccs1`, the melting point is 84 to 85 °C.

Values taken from a melting point compilation (Tetko et al.; mined from patent text by program, amines drawn as free bases though some values may be those of a salt).
